Assay results: patent US20250326771A1, “PIPERAZINE DERIVATIVES USEFUL IN HIV THERAPY” (VIIV HEALTHCARE COMPANY, priority 2022, published 2025)
Like-named read-outs stand apart in the source and are kept apart here.

Legend:
cIAP2-BIR2 = cIAP2-BIR2 (Homo sapiens (Human), UniProt Q13489); test: BIR binding assay (FRET competition), cIAP2 BIR2
Method in brief: (§1)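 His-tagged domains (50 nM cIAP1-BIR3, 325 nM cIAP2-BIR2, 325 nM cIAP1-BIR2, 100 nM XIAP-BIR3) compete with compounds for a 200 nM AlexaFluor647-labelled SMAC/DIABLO peptide in HEPES buffer, pH 7.4, for 60 min. Then 2 nM Eu-W1024 is added for 30 min. The 615/665 nm ratio is fit by four-parameter fit to give IC50.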

cIAP1-BIR3 = cIAP1-BIR3 (Homo sapiens (Human), UniProt Q13490); test: BIR binding assay (FRET competition), cIAP1 BIR3; details: for cIAP1 BIR3 vs BIR2 separation window: fold separation (FS) for cIAP1
Chain of cIAP1-BIR3 (Q13490 253-363): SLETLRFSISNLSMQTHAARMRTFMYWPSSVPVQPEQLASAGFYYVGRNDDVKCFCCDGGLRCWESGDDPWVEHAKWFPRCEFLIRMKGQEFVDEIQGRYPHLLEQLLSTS
Method in brief: as §1

cIAP2-BIR3 = cIAP2-BIR3 (Homo sapiens (Human), UniProt Q13489); test: BIR binding assay (FRET competition), cIAP2 BIR3; details: for cIAP2 BIR3 vs BIR2 separation window: fold separation (FS) for cIAP2
Chain of cIAP2-BIR3 (Q13489 238-349): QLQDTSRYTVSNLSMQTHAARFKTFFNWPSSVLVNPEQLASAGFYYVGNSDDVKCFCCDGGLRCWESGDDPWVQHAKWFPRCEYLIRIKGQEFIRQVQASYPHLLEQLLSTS

XIAP-BIR3 = XIAP-BIR3 (Homo sapiens (Human), UniProt P98170); test: BIR binding assay (FRET competition), XIAP BIR3; details: for XIAP BIR3 vs BIR2 separation window: fold separation (FS) for XIAP
Chain of XIAP-BIR3 (P98170 241-356): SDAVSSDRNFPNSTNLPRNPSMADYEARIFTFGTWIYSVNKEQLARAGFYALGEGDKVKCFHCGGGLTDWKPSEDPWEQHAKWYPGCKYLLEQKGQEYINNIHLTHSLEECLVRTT
Method in brief: as §1

[1] = tested on: Jurkat HIV-luciferase clones; test: Jurkat latency reversal assay; type: cell-based; details: Homo sapiens, 48 h; Jurkat latency reversal assay potency; read-out: Jurkat pEC50 (converted)
Method in brief: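 Compounds are titrated 3-fold over 14 points from 10 μM in duplicate at 0.5% DMSO. Clones C16, 115 and N6, grown with 500 nM EFV, are co-incubated for 48 h at 37° C. Virally driven luciferase is read by luminescence, and EC50 and maximal percent activation versus vehicle come from a four-parameter model.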

cIAP1-BIR2 = cIAP1-BIR2 (Homo sapiens (Human), UniProt Q13490); test: BIR binding assay (FRET competition), cIAP1 BIR2
Chain of cIAP1-BIR2 (Q13490 173-257): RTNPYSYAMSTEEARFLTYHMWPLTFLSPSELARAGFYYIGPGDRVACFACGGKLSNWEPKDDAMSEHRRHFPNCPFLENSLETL
Method in brief: as §1

XIAP-BIR2 = XIAP-BIR2 (Homo sapiens (Human), UniProt P98170); test: BIR binding assay (FRET competition), XIAP BIR2; details: for IC50: read-out: XIAP BIR2 (pIC50) (converted)
Chain of XIAP-BIR2 (P98170 124-240): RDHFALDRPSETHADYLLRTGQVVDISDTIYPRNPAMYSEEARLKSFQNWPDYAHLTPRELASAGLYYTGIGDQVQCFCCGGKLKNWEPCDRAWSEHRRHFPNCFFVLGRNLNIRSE
Method in brief: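 Compounds in a 15-point, 3-fold series competed with an AlexaFluor647 SMAC peptide (AVPIAQKSE, 200 nM) for 200 nM His-tagged XIAP-BIR2 over 60 min in pH 7.4 HEPES/CHAPS/DTT buffer. Eu-W1024 (2 nM) was then added for 30 min. IC50 and pIC50 were derived from the 615 nm/665 nm emission ratio by variable-slope fit.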

Chain of cIAP2-BIR2 (Q13489 158-242): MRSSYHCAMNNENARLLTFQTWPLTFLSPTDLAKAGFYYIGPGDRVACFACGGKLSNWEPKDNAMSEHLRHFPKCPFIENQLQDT

Row | SMILES | IC50 (cIAP2-BIR2) | IC50 (cIAP1-BIR3) | cIAP1 BIR3 vs BIR2 separation window (cIAP1-BIR3) | IC50 (cIAP2-BIR3) | cIAP2 BIR3 vs BIR2 separation window (cIAP2-BIR3) | IC50 (XIAP-BIR3) | XIAP BIR3 vs BIR2 separation window (XIAP-BIR3) | EC50 [1] | IC50 (cIAP1-BIR2) | XIAP BIR2 (pIC50) (XIAP-BIR2; FRET competition binding) | IC50 (XIAP-BIR2; FRET competition binding) | IC50 (XIAP-BIR2; FRET competition)
1 | C[C@@H]1CN(CC(=O)N2CC(C)(C)c3c2cc(Cc2ccc(F)cc2)c(=O)n3C)[C@@H](CN2CCO[C@H](COc3ccc(Cc4ccc(OC[C@@H]5CN(C[C@H]6CN[C@H](C)CN6CC(=O)N6CC(C)(C)c7c6cc(Cc6ccc(F)cc6)c(=O)n7C)CCO5)cc4)cc3)C2)CN1 [Example 115, 1,1′-(2,2′-((3R,3′R,6R,6′R)-(((2S,2'S)-(((methylenebis(4,1-phenylene))bis(oxy))bis(methylene))bis(morpholine-2,4-diyl))bis(methylene))bis(3-methylpiperazine-6,1-diyl))bis(acetyl))bis(6-(4-fluorobenzyl)-3,3,4-trimethyl-1,2,3,4-tetrahydro-5H-pyrrolo[3,2-b]pyridin-5-one)] | 10 to 51.3 µM | 0.0316 to 0.501 µM | +++ (10,000>FS>1,000) | 0.0316 to 0.501 µM | +++ (10,000>FS>1,000) | 0.0316 to 0.501 µM | ++ (1,000>FS>100) | 0.0631 to 0.316 µM | 3.16 to 10 µM | ++ (5.00<pIC50<=5.50) |  | 
2 | C[C@@H]1CN(CC(=O)N2CC(C)(C)c3[nH]c(=O)c(Cc4ccc(F)cc4)cc32)[C@@H](CN2CCO[C@@H](COCCCCOC[C@H]3CN(C[C@H]4CN[C@H](C)CN4CC(=O)N4CC(C)(C)c5[nH]c(=O)c(Cc6ccc(F)cc6)cc54)CCO3)C2)CN1 [Example 113, 1,1′-(2,2′-((3R,3′R,6R,6′R)-(((2R,2′R)-((butane-1,4-diylbis(oxy))bis(methylene))bis(morpholine-2,4-diyl))bis(methylene))bis(3-methylpiperazine-6,1-diyl))bis(acetyl))bis(6-(4-fluorobenzyl)-3,3-dimethyl-1,2,3,4-tetrahydro-5H-pyrrolo[3,2-b]pyridin-5-one)] | 3.16 to 10 µM | 0.00794 to 0.0158 µM | +++ (10,000>FS>1,000) | 0.00794 to 0.0158 µM | +++ (10,000>FS>1,000) | 0.0158 to 0.0316 µM | ++++ (FS>10,000) | 0.00049 to 0.0126 µM | 3.16 to 10 µM |  | 10 to 51.3 µM | 
3 | C[C@@H]1CN(CC(=O)N2CC(C)(C)c3[nH]c(=O)c(Cc4ccc(F)cc4)cc32)[C@@H](CN2CCC(CNC(=O)Cc3ccc(CC(=O)NCC4CCN(C[C@H]5CN[C@H](C)CN5CC(=O)N5CC(C)(C)c6[nH]c(=O)c(Cc7ccc(F)cc7)cc65)CC4)cc3)CC2)CN1 [Example 102, 2,2′-(1,4-phenylene)bis(N-((1-(((2R,5R)-1-(2-(6-(4-fluorobenzyl)-3,3-dimethyl-5-oxo-2,3,4,5-tetrahydro-1H-pyrrolo[3,2-b]pyridin-1-yl)-2-oxoethyl)-5-methylpiperazin-2-yl)methyl)piperidin-4-yl)methyl)acetamide)] | 3.16 to 10 µM | 0.00794 to 0.0158 µM | +++ (10,000>FS>1,000) | 0.00794 to 0.0158 µM | ++++ (FS>10,000) | 0.00794 to 0.0158 µM | ++++ (FS>10,000) | 0.0631 to 0.316 µM | 3.16 to 10 µM |  | 10 to 51.3 µM | 
4 | C[C@@H]1CN(CC(=O)N2CC(C)(C)c3ncc(N(C)c4ccc(F)cc4)cc32)[C@@H](CN2CCO[C@H](COc3cccc(OC[C@@H]4CN(C[C@H]5CN[C@H](C)CN5CC(=O)N5CC(C)(C)c6ncc(N(C)c7ccc(F)cc7)cc65)CCO4)c3)C2)CN1 [Compound 144] | 10 to 51.3 µM | 0.0316 to 0.501 µM | +++ (10,000>FS>1,000) | 0.0316 to 0.501 µM | +++ (10,000>FS>1,000) | 0.0316 to 0.501 µM | +++ (10,000>FS>1,000) | 0.316 to 3.31 µM | 10 to 51.3 µM |  |  | 10 to 51.3 µM
5 | C[C@@H]1CN(CC(=O)N2CC(C)(C)c3[nH]c(=O)c(Cc4ccc(F)cc4)cc32)[C@@H](CN2CCO[C@H](C(=O)NCc3cccc(CNC(=O)[C@@H]4CN(C[C@H]5CN[C@H](C)CN5CC(=O)N5CC(C)(C)c6[nH]c(=O)c(Cc7ccc(F)cc7)cc65)CCO4)c3)C2)CN1 [Example 122, (2S,2'S)-N,N′-(1,3-phenylenebis(methylene))bis(4-(((2R,5R)-1-(2-(6-(4-fluorobenzyl)-3,3-dimethyl-5-oxo-2,3,4,5-tetrahydro-1H-pyrrolo[3,2-b]pyridin-1-yl)-2-oxoethyl)-5-methylpiperazin-2-yl)methyl)morpholine-2-carboxamide)] | 1 to 3.16 µM | 0.00794 to 0.0158 µM | ++ (1,000>FS>100) | 0.00794 to 0.0158 µM | +++ (10,000>FS>1,000) | 0.0158 to 0.0316 µM | ++++ (FS>10,000) | 0.0126 to 0.0631 µM | 1 to 3.16 µM |  | 10 to 51.3 µM | 
6 | C[C@@H]1CN(CC(=O)N2CC(C)(C)c3[nH]c(=O)c(Cc4ccc(F)cc4)cc32)[C@@H](CN2CCO[C@H](C(=O)NCC(O)CNC(=O)[C@@H]3CN(C[C@H]4CN[C@H](C)CN4CC(=O)N4CC(C)(C)c5[nH]c(=O)c(Cc6ccc(F)cc6)cc54)CCO3)C2)CN1 [Compound 137, (2S,2′S)-N,N′-(2-hydroxypropane-1,3-diyl)bis(4-(((2R,5R)-1-(2-(6-(4-fluorobenzyl)-3,3-dimethyl-5-oxo-2,3,4,5-tetrahydro-1H-pyrrolo[3,2-b]pyridin-1-yl)-2-oxoethyl)-5-methylpiperazin-2-yl)methyl)morpholine-2-carboxamide)] | 1 to 3.16 µM | 0.00794 to 0.0158 µM | +++ (10,000>FS>1,000) | 0.00794 to 0.0158 µM | +++ (10,000>FS>1,000) | 0.0158 to 0.0316 µM | ++++ (FS>10,000) | 0.0631 to 0.316 µM | 1 to 3.16 µM |  |  | 10 to 51.3 µM
7 | C[C@@H]1CN(CC(=O)N2CC(C)(C)c3ncc(Nc4ccc(F)cc4)cc32)[C@@H](CN2CCO[C@H](COc3cccc(OC[C@@H]4CN(C[C@H]5CN[C@H](C)CN5CC(=O)N5CC(C)(C)c6ncc(Nc7ccc(F)cc7)cc65)CCO4)c3)C2)CN1 [Compound 143, -[6-(4-fluoroanilino)-3,3-dimethyl-2H-pyrrolo[3,2-b]pyridin-1-yl]-2-[(2R,5R)-2-[[(2S)-2-[[3-[[(2S)-4-[[(2R,5R)-1-[2-[6-(4-fluoroanilino)-3,3-dimethyl-2H-pyrrolo[3,2-b]pyridin-1-yl]-2-oxo-ethyl]-5-methyl-piperazin-2-yl]methyl]morpholin-2-yl]methoxy]phenoxy]methyl]morpholin-4-yl]methyl]-5-methyl-piperazin-1-yl]ethenone] | 10 to 51.3 µM | 0.0316 to 0.501 µM |  | 0.0158 to 0.0316 µM | ++++ (FS>10,000) | 0.0316 to 0.501 µM | +++ (10,000>FS>1,000) | 0.316 to 3.31 µM | 10 to 51.3 µM |  |  | 10 to 51.3 µM
8 | Cc1ccc(Oc2cc3c([nH]c2=O)C(C)(C)CN3C(=O)CN2C[C@@H](C)NC[C@@H]2CN2CCO[C@H](C(=O)NCc3ccc(CNC(=O)[C@@H]4CN(C[C@H]5CN[C@H](C)CN5CC(=O)N5CC(C)(C)c6[nH]c(=O)c(Oc7ccc(C)cc7)cc65)CCO4)cc3)C2)cc1 [Compound 184, (2S,2′S)-N,N′-(1,4-phenylenebis(methylene)) bis(4-(((2R,5R)-1-(2-(3,3-dimethyl-5-oxo-6-(p-tolyloxy)-2,3,4,5-tetrahydro-1H-pyrrolo[3,2-b]pyridin-1-yl)-2-oxoethyl)-5-methylpiperazin-2-yl)methyl)morpholine-2-carboxamide)] | 3.16 to 10 µM | 0.00794 to 0.0158 µM | +++ (10,000>FS>1,000) | 0.00138 to 0.00794 µM | ++++ (FS>10,000) | 0.0316 to 0.501 µM | +++ (10,000>FS>1,000) | 0.316 to 3.31 µM | 3.16 to 10 µM |  |  | 10 to 51.3 µM
